Columns and labels:
[1] = in vitro; conditions: human, pH 7.4
[2] = oral administration; inferred from Papp of Example 12
Source text: Previous studies of the drug permeability data in Caco-2 cells for predicting human drug absorption data plotted apparent permeability (Papp) values against the drug fraction absorbed in humans expressed as a percentage of the administered dose (FA). […] (Turco, et al. Toxicology in Vitro, 2010, 13-20).

In the case of `CC(C)NCC(O)COc1ccc(CC(N)=O)cc1` (centres unmarked) [atenolol], the recovery at 120 min [1] is reported as 89.1 ± 5.2%.
`Cl.Cl.NCCc1c[nH]cn1` [histamine dihydrochloride] showed a Papp A→B at 120 min [1] of 18.7 ± 1.5 ×10⁻⁶ cm/s, a Papp A→B at 120 min, 89969 μM [1] of 18.7 ± 1.5 ×10⁻⁶ cm/s and a recovery at 120 min [1] of 93.6%. For the same molecule, the “absorbed in the small intestine, amount of the administered dosage” value [2] was “greater than 85%”.
